In patent publication US20250166176A1, “METHODS AND MATERIALS FOR IMAGING ADIPOSE TISSUE” (CellSight Technologies Inc., priority 2022, published 2025):

Experiments:
Assay type in all cases: in vivo
[1] = test system: BAT and marrow adipose tissue; assay: [18F]F-AraG PET imaging after chronic dosing with BRL37344; details: mice, 3 days+1 h prior to imaging
[2] = test system: iBAT; assay: [18F]F-AraG PET imaging of iBAT in mice with GBM tumors; details: one GBM mouse with highest neuroinflammation
Source text: During our studies into the utility of ^18F-AraG in assessing intracranial T cell infiltration in glioblastoma multiforme (GBM) we made the unexpected and surprising discovery that ^18F-AraG can also image and/or assess the activation of adipose tissue (FIG. 2). Adipose, or fat, tissue (AT) was once considered an inert tissue that primarily existed to store lipids, and was not historically recognized as an important organ in the regulation and maintenance of health. With the rise of obesity and more rigorous research, AT is now recognized as a highly complex metabolic organ involved in a host of important physiological functions, including glucose homeostasis and a multitude of endocrine capabilities. […] The study of AT can provide useful insights in developing strategies to combat these highly prevalent metabolic diseases.
[^18F]F-AraG ability to track stimulated adipocytes allowed observation of activated iBAT in mice with bioluminescently-tagged GBM tumors. The activation occurred at different time points and varied in intensity.

[3] = test system: intrascapular BAT (iBAT); assay: [18F]F-AraG and FDG PET imaging of BAT in mice treated with BRL37344, insulin or vehicle

| SMILES | effect of chronic dosing on [18F]F-AraG signal (in words) [1] | iBAT [18F]F-AraG signal ([2]; OnTx3) [% ID/g] | iBAT [18F]F-AraG signal ([2]; PreTx) [% ID/g] | [18F]F-AraG uptake in iBAT ([3]; control animals) [% ID/g] | [18F]F-AraG uptake in iBAT ([3]; insulin-treated mice) [% ID/g] | accumulation of [18F]F-AraG in intrascapular BAT (iBAT) ([3]; mice, BRL37344 administered one hour prior to imaging) [% ID/g] |
| --- | --- | --- | --- | --- | --- | --- |
| C[C@H](Cc1ccc(OCC(=O)O)cc1)NC[C@H](O)c1cccc(Cl)c1 [BRL37344] | increase in [^18F]F-AraG signal not only in the classical, intrascapular BAT. but also in lumbar spinal cord and proximal tibia |  |  |  |  |  |
| Nc1nc2c(ncn2[C@@H]2O[C@H](CO)[C@@H](O)[C@@H]2[18F])c(=O)[nH]1 [[^18F]F-AraG, [18F]-F-arabinofuranosyl guanine] |  | 14.92 | 1.70 | 4.11±0.76 | 3.36±0.62 | 10.98±1.64 |
